Square brackets hold non-standard residues; d marks the D form. Peptide text beside a SMILES is read from it. * marks the point of attachment. Sta = CC(C)C[C@H](N)[C@@H](O)CC(=O)O; Isovaleryl = CC(C)CC(=O)*
Columns and labels:
Type in all cases: biochemical
[1] = test system: aspartyl activity of Lucilia sericata ES; assay: Aspartyl proteinase activity of ES by FITC-casein hydrolysis at pH 5.0
Excerpt: (§1) In addition to the predominant serine proteinase activity detected in the ES secretions of Lucilia sericata other less predominant activity is present. The presence of an aspartyl and metalloproteinase activity has been detected though no cysteinyl activity is shown. […] This inhibition reflects the presence of an exopeptidase with a metalloproteinase enzymic nature.

[2] = test system: Lucilia sericata ES serine proteinase activity; assay: FITC-casein hydrolysis by Lucilia sericata ES at pH8 in the presence of PMSF/APMSF
Method: The activity of Lucilia sericata ES in FITC-casein hydrolysis at pH8 was investigated using different presentations of ES (0.25 μg) as follows:
The proteolytic activity of Lucilia sericata ES was inhibited following pre-incubation with the irreversible serine proteinase inhibitor PMSF. […] PMSF is dissolved in ethanol and the effect of the solvent on the activity of the ES was negligible. In contrast, approximately 50% of residual serine proteinase activity from ES was detected in the cases where the ES had been pre-incubated with the irreversible “trysin-like” specific inhibitor APMSF. Residual activity in the presence of APMSF indicates the presence of a chymotrypsin-like enzyme.

[3] = test system: trypsin-like serine proteinase activity in Lucilia sericata ES; assay: Tosyl-Gly-Pro-Arg-AMC hydrolysis by Lucilia sericata ES in the presence of APMSF and PMSF
Method: (§2) The activity of Lucilia sericata ES (0.25 μg) against Tosyl-Gly-Pro-Arg-AMC (a) and against Suc-Ala-Ala-Phe-AMC (b) in the presence of APMSF and PMSF was investigated using different presentations of ES as follows:
(a) • A. ES • B. ES pre-incubated with 0.025 mM APMSF • C. ES pre-incubated with 0.05 mM APMSF • D. ES pre-incubated with 1 mM PMSF
(§3) The results for (a) reveal the “trypsin-like” serine proteinase activity present in Lucilia sericata ES. The hydrolysis of Tosyl-Glyc-Pro-Arg-AMC (selective for the serine proteinases thrombin and plasmin) was inhibited by 1 mM PMSF and 0.05 mM APMSF. […] The results provide further evidence of the presence in ES of two different sub-classes of serine proteinase.

[4] = test system: chymotrypsin-like serine proteinase activity in Lucilia sericata ES; assay: Suc-Ala-Ala-Phe-AMC hydrolysis by Lucilia sericata ES in the presence of APMSF and PMSF
Method: as §2
(b) • E. ES • F. ES pre-incubated with 0.2 mM APMSF • G. ES pre-incubated with 1 mM PMSF
as §3

[5] = Lipase activity of ES secretions; settings: pre-incubated with the inhibitor
[6] = test system: fibronectin, laminin and collagens I, III, IV and V; assay: Degradation of ECM/wound components by larval ES secretions
[7] = test system: exopeptidase (metalloproteinase activity) of Lucilia sericata ES; assay: Leucine aminopeptide hydrolysis by Lucilia sericata ES
Excerpt: as §1

[8] = test system: trypsin-like serine proteinase (aminobenzamidine elution peak) and flow-through proteinases of Lucilia sericata ES; assay: Residual proteinase activity of aminobenzamidine agarose column fractions with APMSF
Method: The trypsin-like serine proteinase was purified by affinity chromatography of Lucilia sericata ES on aminobenzamidine agarose. The column matrix (1 ml) was equilibrated with 20 ml of 0.025M Tris-HCl buffer pH 8.0 containing 0.5M NaCl. The crude ES (0.5 ml, 70 μg/ml protein) was diluted with an equal volume of buffer before application to the column. Fractions (0.5 ml) were collected throughout the chromatography. After washing with 6.5 times column volume of buffer to remove unbound protein, the free aminobenzamidine ligand (2 ml 400 μM) was used to elicit the elution of bound material. Absorbance readings of the fractions at 280 nm was used to establish the positions of the unbound (flow-through) and bound peaks which were then collected for assay.
Aminobenzamidine agarose binds trypsin-like serine proteinases. Following application of larval enzyme secretions to the column, unbound material passed directly through and was collected as “flow-through” (peak I). The addition of free aminobenzamidine to the column buffer elicited elution of the bound proteinase (peak II). The unbound (flow-through) material contained proteinase activity unaffacted by APMSF (possibly including a a chrymotrypsin-like enzyme), whereas the activity in the aminobenzamidine elution peak was substantially abolished (80%) by APMSF, indicating purification of a trypsin-like serine proteinase activity.

[9] = ES (0.25 μg) pre-incubated with 0.2 mM inhibitor
[10] = ES (0.25 μg) pre-incubated with 1 mM inhibitor

CC(C)CC(=O)N[C@H](C(=O)N[C@H](C(=O)N[C@@H](CC(C)C)[C@@H](O)CC(=O)N[C@@H](C)C(=O)N[C@@H](CC(C)C)[C@@H](O)CC(=O)O)C(C)C)C(C)C [pepstatin A] (Isovaleryl-VV[Sta]A[Sta]-OH)
inhibition of aspartyl activity [1]: successfully inhibited

O=S(=O)(F)Cc1ccccc1 [PMSF, phenyl methanesulphonyl fluoride]
activity (%) of ES in FITC-casein hydrolysis [2, 9]: 13.8%
activity (%) of ES in FITC-casein hydrolysis ([2]; ES (0.25 μg) pre-incubated with 0.6 mM inhibitor): 18%
residual activity (%) against Tosyl-Gly-Pro-Arg-AMC [3, 10]: 0%
residual activity (%) against Suc-Ala-Ala-Phe-AMC [4, 10]: 1.3%
lipase activity of ES secretions pre-incubated with inhibitor [5]: not detected
inhibition of the degradation of laminin and fibronectin by larval secretions [6]: inhibited

c1cnc2c(c1)ccc1cccnc12 [1,10-phenanthroline]
inhibition of leucine aminopeptide hydrolysis [7]: inhibited
inhibition of the degradation of laminin and fibronectin by larval secretions [6]: not significantly

N=C(N)c1ccc(CS(=O)(=O)F)cc1 [APMSF, 4-(amidinophenyl) methane sulphonyl fluoride]
activity (%) of ES in FITC-casein hydrolysis ([2]; ES (0.25 μg) pre-incubated with 0.04 mM inhibitor): 43.5%
activity (%) of ES in FITC-casein hydrolysis ([2]; ES (0.25 μg) pre-incubated with 0.12 mM inhibitor): 47%
activity (%) of ES in FITC-casein hydrolysis [2, 9]: 54%
residual serine proteinase activity from ES ([2]; ES pre-incubated with APMSF, summary over the concentrations): approximately 50%
residual activity (%) against Tosyl-Gly-Pro-Arg-AMC ([3]; ES (0.25 μg) pre-incubated with 0.025 mM inhibitor): 14.3%
residual activity (%) against Tosyl-Gly-Pro-Arg-AMC ([3]; ES (0.25 μg) pre-incubated with 0.05 mM inhibitor): 3.6%
residual activity (%) against Suc-Ala-Ala-Phe-AMC [4, 9]: 86.8%
activity abolished by inhibitor ([8]; aminobenzamidine elution peak (peak II)): 80%
effect of inhibitor on proteinase activity ([8]; unbound (flow-through) material (peak I)): unaffacted
inhibition of the degradation of laminin and fibronectin by larval secretions [6]: not significantly

— US7144721B1, “Treatment of wounds” (The Secretary of the State of Defense, Defence Science and …, priority 1999, dated 2006)
